In US12559513B2, “Aromatic glycoside and method for producing the glycoside” (CAROTENOID-PRODUCTION TECHNOLOGY CORPORATION (CaroProTech), priority 2022, dated 2026):
One block for each compound: values may come before it.

Assays:
rat brain homogenate = assay: Peroxidation-inhibiting test of rat brain lipids (rat brain homogenate, TBA method); assay type: biochemical; details: for IC50: 1 hour at 37° C., malondialdehyde by A532, read-out: IC50 (50% inhibition concentration of rat brain lipid-peroxidation)
Description: The lipid peroxidation-inhibiting assay with rat brain homogenate is an experimental system for evaluating damages of biological system caused by the generation of ROS (Reactive Oxygen Species). It is because the rat brain is an organ that is easily oxidized by ROS. Using this system, we evaluated antioxidative activity of compounds 1-5.
Using rat brain homogenate, we examined lipid peroxidation-inhibiting activities of the test compounds. It was performed by incubating rat brain homogenate to proceed with lipid peroxidation reactions, with each compound and with no compound (as the control), by measuring the amounts of consequently generated malondialdehyde by absorbance at 532 nm in the TBA method, and by comparing the amounts of the malondialdehyde products between them.
We preincubated IWAKI disposable test tube ([…]×100 mm) that contained 0.6 mL of 100 mM phosphate buffer (pH 7.4), 0.05 mL of each test sample-including solution, 0.1 mL of 1 mM ascorbic acid, and 0.05 mL of distilled water at 37° C. for 5 min. And 0.2 mL of 2.5% (w/v) rat brain homogenate was added to the test tube, and incubated for 1 hour at 37° C. with shaking (150 rpm). Then, 1 mL of 0.2 N HCl solution including 20% (W/V) trichloroacetic acid and 0.5% (W/V) 2-thiobarbituric acid was added to the above test tube to stop the reaction. Next, this test tube containing each reaction solution was boiled for 30 min at 100° C. to produce color. After chilled on ice, each solution from the test tube was centrifuged with 3,000 rpm for 10 min, and the absorbance of each supernatant was measured at 532 nm (A532).
The lipid peroxidation-inhibiting ratio (%) of each extracted solution (containing each flavonoid glycoside as a test compound (T)) was calculated using the following Formula 1. (1−[T−B]/[C−B])′100. Formula 1
T (test), C (control), and B (blank) are A532 of a test compound with the rat brain homogenate, the control (no compound (instead ethanol) with the homogenate), and the blank control (no compound (instead ethanol) without the homogenate (instead phosphate buffer)), respectively. The lipid peroxidation-inhibiting activity was determined as the IC50 value, representing the concentration at which 50% inhibition was observed.
(Peroxidation-Inhibiting Test of Rat Brain Lipids)

[1] = tested on: mouse preadipocyte 3T3-L1; assay: Differentiation-inducing test of mouse preadipocyte 3T3-L1 (Oil Red O staining); assay type: cell-based; details: 3T3-L1 cells, differentiation cocktail with insulin for 6 days
Source text: Mouse preadipocyte 3T3-L1 is used for screening of activities for lipid metabolism improvement and anti-diabetes, since 3T3-L1 is induced to the differentiation of small adipocyte under proper conditions. This differentiated fat cell produces lipid bodies that can be stained with Oil Red O. PPAR (Peroxisome Proliferator-Activated Receptor) belongs to nuclear receptor superfamily. PPARγ is importantly related to differentiation of fat cells, e.g., activated PPARγ promotes differentiation from preadipocyte to adipocyte. Furthermore, PPARγ promotes apoptosis of large fat cells. Compounds activating PPARγ (PPARγ agonists) improve insulin resistance by inducing apoptosis of large fat cells that are willing to produce TNF-α and free fatty acids, reluctant to import sugars, and induce insulin resistance. PPARγ agonists further reduce blood glucose levels, and exert anti-diabetes activity by inducing differentiation to small fat cells that are reluctant to produce TNF-α and free fatty acids, willing to import glucose in blood, and improve glucose metabolism. Currently, PPARγ agonists such as rosiglitazone (thiazolidine) are used clinically to treat patients with type-2 diabetes mellitus.
In the present EXAMPLE, we carried out to examine whether aromatic compound glycosides can promote differentiation to small fat cells, using mouse 3T3-L1 preadipocyte.
Thus, we examined the PPARγ agonistic activities of compounds 3, 4, 20, and 21, which were selected as the representatives.
The 3T3-L1 cell line was purchased from Japanese Collection of Research Bioresources Cell Bank (JCRB, Osaka, Japan). The 3T3-L1 cells were cultured in DMEM with 10% fetal calf serum (FCS, Sigma Aldrich, St Lous, USA) and antibiotics ([…]). The cells were seeded in collagen coated 12-well plates at 10,000 cells/well (1 mL) and grown to confluence for 2 days. The differentiation procedure was initiated 2 days after cells reached confluence by changing the medium to the differentiation cocktail ([…] in DMEM containing 10% FBS and antibiotics) with or without various concentrations of test compounds (positive control, thiazolidine; four aromatic compound glycosite) dissolved in DMSO (10^3-10^4 times dilutions of the stocks were used). Thereafter, the cells were grown in the differentiation cocktail for 6 days.
Then, Oil Red O (ORO) staining was performed to evaluate the ratio of the differentiated 3T3-L1 cells. […] ORO was then extracted from fixed cells with 100% isopropanol (1 mL), and OD500 values of isopropanol solution, which reflect the ORO amount imported into the cells (=the lipid (body) amount of the differentiated cells), were measured by 96-well microplate reader. […]

Compound: CC1OC(Oc2cc(O)c3c(=O)c(O[C@@H]4OC(CO)[C@@H](O)C(O)C4O[C@@H]4OC(CO)[C@@H](O)C(O)C4O)c(-c4ccc(O)c(OC(=O)/C=C/c5ccc(O)c(O)c5)c4)oc3c2)C(O)C(O)C1O (stereo partly shown) [Compound 1]
IC50 (rat brain homogenate): 1.7 µM

Compound: CC1OC(Oc2cc(O)c3c(=O)c(O[C@@H]4OC(CO)[C@@H](O)C(O)C4O[C@@H]4OC(CO)[C@@H](O)C(O)C4O)c(-c4ccc(OC(=O)/C=C/c5ccc(O)c(O)c5)cc4)oc3c2)C(O)C(O)C1O (stereo partly shown) [Compound 2]
IC50 (rat brain homogenate): 15 µM

Compound: O=C(/C=C/c1ccc(O)c(O)c1)Oc1cc(-c2oc3cc(O)cc(O)c3c(=O)c2O[C@@H]2OC(CO)[C@@H](O)[C@H](O)C2O[C@@H]2OC(CO)[C@@H](O)[C@H](O)C2O)ccc1O (stereo partly shown) [Compound 4]
IC50 (rat brain homogenate): 1.1 µM
activity for differentiation induction to small fat cells (adipose) [1]: strong activity for differentiation induction to small fat cells

Compound: O=C(/C=C/c1ccc(O)c(O)c1)Oc1ccc(-c2oc3cc(O[C@@H]4OC(C(=O)O)[C@@H](O)C(O)C4O)cc(O)c3c(=O)c2O[C@@H]2OC(CO)[C@@H](O)C(O)C2O[C@@H]2OC(CO)[C@@H](O)C(O)C2O)cc1 (stereo partly shown) [Compound 21]
lipid peroxidation-inhibiting activity (in words) (rat brain homogenate): possess peroxidation-inhibiting activity
IC50 (rat brain homogenate): 23 µM
activity for differentiation induction to small fat cells (adipose) [1]: strong activity for differentiation induction to small fat cells

More lines, main results first:

IC50 (rat brain homogenate): 1.4 µM
Compound: CC1OC(Oc2cc(O)c3c(=O)c(OC4OC(C)C(O)C(O)C4O[C@@H]4OC(CO)[C@@H](O)[C@H](O)C4O)c(-c4ccc(O)c(OC(=O)/C=C/c5ccc(O)c(O)c5)c4)oc3c2)C(O)C(O)C1O (stereo partly shown) [Compound 3]
activity for differentiation induction to small fat cells (adipose) [1]: strong activity for differentiation induction to small fat cells

IC50 (rat brain homogenate): 1.5 µM
Compound: CC1OC(Oc2c(-c3ccc(O)c(OC(=O)/C=C/c4ccc(O)c(O)c4)c3)oc3cc(O[C@@H]4OC(CO)[C@@H](O)[C@H](O)C4O)cc(O)c3c2=O)C(O[C@@H]2OC(CO)[C@@H](O)[C@H](O)C2O)C(O)C1O (stereo partly shown) [Compound 5]

IC50 (rat brain homogenate): 1.5 µM
Compound: O=C(/C=C/c1ccc(O)c(O)c1)Oc1cc(-c2oc3cc(O[C@@H]4OC(C(=O)O)[C@@H](O)C(O)C4O)cc(O)c3c(=O)c2O[C@@H]2OC(CO)[C@@H](O)C(O)C2O[C@@H]2OC(CO)[C@@H](O)C(O)C2O)ccc1O (stereo partly shown) [Compound 20]
lipid peroxidation-inhibiting activity (in words) (rat brain homogenate): possess peroxidation-inhibiting activity
activity for differentiation induction to small fat cells (adipose) [1]: strong activity for differentiation induction to small fat cells
